Experimental data taken from patent US8119681B2, “2-[1-phenyl-5-hydroxy or methoxy-4alpha-methyl-hexahydrocyclopenta [ƒ]indazole-5-YL]ethyl phenyl derivatives as glucocorticoid receptor ligands” (Merck Sharp & Dohme Corp., priority 2006, dated 2012).
Like-named read-outs stand apart in the source and are kept apart here.

Molecular target: T1, human GR (Homo sapiens, UniProt P04150)
T1 sequence (P04150 1-777): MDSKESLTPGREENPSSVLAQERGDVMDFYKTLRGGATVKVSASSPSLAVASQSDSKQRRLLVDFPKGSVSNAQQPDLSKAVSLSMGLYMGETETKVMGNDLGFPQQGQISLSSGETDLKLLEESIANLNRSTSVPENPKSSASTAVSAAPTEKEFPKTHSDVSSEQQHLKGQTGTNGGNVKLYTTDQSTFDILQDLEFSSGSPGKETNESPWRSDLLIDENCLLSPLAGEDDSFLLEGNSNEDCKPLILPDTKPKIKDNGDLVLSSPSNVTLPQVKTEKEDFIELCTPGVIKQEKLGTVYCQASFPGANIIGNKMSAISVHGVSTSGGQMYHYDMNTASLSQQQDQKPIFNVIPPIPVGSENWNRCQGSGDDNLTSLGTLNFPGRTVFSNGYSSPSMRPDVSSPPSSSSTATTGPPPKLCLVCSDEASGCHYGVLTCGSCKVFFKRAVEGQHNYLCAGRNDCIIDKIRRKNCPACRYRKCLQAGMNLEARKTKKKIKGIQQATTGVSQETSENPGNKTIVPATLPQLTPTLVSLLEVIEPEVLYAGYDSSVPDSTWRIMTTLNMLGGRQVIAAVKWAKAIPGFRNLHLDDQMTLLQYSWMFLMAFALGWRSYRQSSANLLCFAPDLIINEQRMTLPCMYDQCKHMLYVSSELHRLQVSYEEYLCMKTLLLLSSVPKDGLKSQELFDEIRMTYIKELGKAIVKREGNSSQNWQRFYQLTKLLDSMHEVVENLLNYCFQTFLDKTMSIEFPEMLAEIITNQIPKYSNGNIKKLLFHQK
Experiment: Transrepression Assay (GITAR), TNFα-β-lactamase reporter gene in U937 cells
Format: cell-based
Design: U937 cells contain an endogenous glucocorticoid receptor (GR); endogenous in cells; host or cells: U937 cells stably transfected with the TNF-α promoter/β-lactamase reporter only
Conditions: for EC50: IP = inflection point; for GITAR > GRAMM % SEP: separation of GITAR Emax over GRAMMER Emax; for Emax: U-937
Outline: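 Reporter readout used CCF2-AM loading for 70–90 min at room temperature after overnight (~18 h, 37 °C) PMA (5 ng/ml final) and LPS (100 ng/ml final) stimulation of compound-treated (30–45 min) TNFα-β-lactamase U937 cells expressing native GR. Activity was normalised to 100 nM dexamethasone repression.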

[1] = Table 1, U937 cells, read-out: Transrepression U937 Cells GITAR IP
[2] = 100 nM dexamethasone = 100% activity, read-out: maximal activity in the transrepression assay
[3] = Table 1, U937 cells, activity repressed by 100 nM dexamethasone = 100%, read-out: Transrepression U937 Cells GITAR Emax (%)
[4] = Table 2, U937 cells, read-out: Transactiviation U937 Cells GITAR IP
[5] = Table 2, U937 cells, activity repressed by 100 nM dexamethasone = 100%, read-out: Transactiviation U937 Cells GITAR Emax (%)

Compound	EC50 [1]	GITAR > GRAMM % SEP (Table 1)	Emax [2]	Emax [3]	EC50 [4]	GITAR > GRAMM % SEP (Table 2)	Emax [5]
CC(O)(C(N)=O)c1ccccc1CC[C@]1(O)CCC2=Cc3c(cnn3-c3ccc(F)cc3)C[C@@]21C (single isomer, unassigned) [Example 150]	0.21 µM	29%	5 to 100%	67%	–	–	–
C[C@]12Cc3cnn(-c4ccc(F)cc4)c3C=C1CC[C@@]2(O)CCc1ccccc1Cl [Example 40 WO 2004/075840 A2, reference compound]	–	–	–	–	0.212 µM	−7%	91%
C[C@]12Cc3cnn(-c4ccc(F)cc4)c3C=C1CC[C@@]2(O)CCc1ccccc1F [Example 70 WO 2004/075840 A2, reference compound]	–	–	–	–	0.175 µM	−62%	83%
CCNC(=O)c1ccccc1CC[C@]1(O)CCC2=Cc3c(cnn3-c3ccc(F)c(F)c3)C[C@@]21C [Example 51, 2-{2-[(4αS,5R)-1-(3,4-difluorophenyl)-5-hydroxy-4α-methyl-1,4,4α,5,6,7-hexahydrocyclopenta[f]indazol-5-yl]ethyl}-N-ethylbenzamide]	0.193 µM	42%	5 to 100%	73%	–	–	–
CC1(NC(=O)c2ccccc2CC[C@]2(O)CCC3=Cc4c(cnn4-c4ccccc4)C[C@@]32C)CC1 [Example 34, 2-{2-[(4αS,5R)-5-hydroxy-4α-methyl-1-phenyl-1,4,4α,5,6,7-hexahydrocyclopenta[f]indazol-5-yl]ethyl}-N-(1-methylcyclopropyl)benzamide]	0.208 µM	41%	5 to 100%	54%	–	–	–

The remaining compounds from weak to strong by EC50 [1], led by results:

EC50 [1]	GITAR > GRAMM % SEP (Table 1)	Emax [2]	Emax [3]	EC50 [4]	GITAR > GRAMM % SEP (Table 2)	Emax [5]	Compound
0.183 µM	41%	5 to 100%	77%	–	–	–	Cc1ccc(C(N)=O)c(CC[C@]2(O)CCC3=Cc4c(cnn4-c4ccc(F)cc4)C[C@@]32C)c1 [Example 174, 2-{2-[(4αS,5R)-1-(4-fluorophenyl)-5-hydroxy-4α-methyl-1,4,4α,5,6,7-hexahydrocyclopenta[f]indazol-5-yl]ethyl}-4-methylbenzamide]
0.138 µM	21%	5 to 100%	67%	–	–	–	C[C@]12Cc3cnn(-c4ccc(F)cc4)c3C=C1CC[C@@]2(O)CCc1cccc(Cl)c1CC(N)=O [Example 197, 2-(2-chloro-6-{2-[(4αS,5R)-1-(4-fluorophenyl)-5-hydroxy-4α-methyl-1,4,4α,5,6,7-hexahydrocyclopenta[f]indazol-5-yl]ethyl}phenyl)acetamide]
0.127 µM	21%	5 to 100%	50%	–	–	–	CCCNC(=O)c1ccccc1CC[C@]1(O)CCC2=Cc3c(cnn3-c3ccc(F)cc3)C[C@@]21C [Example 30, 2-{2-[(4αS,5R)-1-(4-fluorophenyl)-5-hydroxy-4α-methyl-1,4,4α,5,6,7-hexahydrocyclopenta[f]indazol-5-yl]ethyl}-N-propylbenzamide]
0.081 µM	1%	5 to 100%	58%	–	–	–	C[C@]12Cc3cnn(-c4ccc(F)cc4)c3C=C1CC[C@@]2(O)CCc1ccccc1C(=O)NCC1CC1 [Example 37, N-(cyclopropylmethyl)-2-{2-[(4αS,5R)-1-(4-fluorophenyl)-5-hydroxy-4α-methyl-1,4,4α,5,6,7-hexahydrocyclopenta[r]indazol-5-yl]ethyl}benzamide]
0.03 µM	47%	5 to 100%	72%	–	–	–	CCCNC(=O)c1c(F)cccc1CC[C@]1(O)CCC2=Cc3c(cnn3-c3ccc(F)cc3)C[C@@]21C [Example 49, 2-fluoro-6-{2-[(4αS,5R)-1-(4-fluorophenyl)-5-hydroxy-4α-methyl-1,4,4α,5,6,7-hexahydrocyclopenta[f]indazol-5-yl]ethyl}-N-propylbenzamide]
